Columns and labels:
Test in all cases: Cell viability drug screen, 12-point dose-response AUC
Assay type in all cases: cell-based, human
FU97 = tested on: FU97; set-up: Average Area Under the Viability Curve (AUC), AUC norm value: scale not given here; settings: FU97 cells; 72 hours
Protocol: (§1) Cells cultured for cell-based drug assay were inoculated into a 96-well white optical plate (Corning) at 5×10^3 cells per well. After 24 hours after inoculation, a 2.5 MJT (primary screen) or a half-log 12-serial diluent (secondary screen) of the pharmacological compound contained in DMSO is added to the cells with a robot using a BioMek FXp liquid processor (Beckman) to add to the cells at 50 mM. The final drug concentration in the 5 ns range and the DMSO specification control (0.5%) were calculated. The cells were then further incubated at 37° C. in a 5% CO2 incubator for 72 hours prior to measuring cell viability using the extra-GLO assay kit (Promega). The luminescent properties were measured after 15 min incubation at room temperature using a plate stacker equipped with a plate stacker. The normalized viability for the DMSO-based control was measured to generate a cell line-specific 12-point dose-response curve for each pharmacological compound, and then the area under the curve (AUC) was calculated using a trapezoidal method.

SNU601 = SNU601 cells; 72 hours
Protocol: (§2) An FDA-approved small-molecule pharmacological compound (#L1300) and an anticancer compound for research (#L2000) were purchased from Selecckchem and a 10 mM solution was prepared in DMSO. A total of 1,345 compounds were tested the cell viability of the seven EMT gastric cancer cell lines.
as §1, with “method. […] The results of the repeated experiments were averaged to generate AUC values for each cell line for each compound.” for “method.”

AGS = AGS cells (non-SEM subtype); 72 hours
Protocol: as §2
as §1, with “method. […] The results of the repeated experiments were averaged to generate AUC values for each cell line for each compound.” for “method.”

SK4 = SK4 cells (SEM subtype); 72 hours
Protocol: as §2
as §1, with “method. […] The results of the repeated experiments were averaged to generate AUC values for each cell line for each compound.” for “method.”

NCC24 = NCC24 cells; 72 hours
Protocol: as §2
as §1, with “method. […] The results of the repeated experiments were averaged to generate AUC values for each cell line for each compound.” for “method.”

MKN45 = MKN45 cells (non-SEM subtype); 72 hours
Protocol: as §2
as §1, with “method. […] The results of the repeated experiments were averaged to generate AUC values for each cell line for each compound.” for “method.”

OCUM1 = OCUM1 cells; 72 hours
Protocol: as §2
as §1, with “method. […] The results of the repeated experiments were averaged to generate AUC values for each cell line for each compound.” for “method.”

MKN74 = MKN74 cells; 72 hours
Protocol: as §2
as §1, with “method. […] The results of the repeated experiments were averaged to generate AUC values for each cell line for each compound.” for “method.”

SNU620 = SNU620 cells; 72 hours
Protocol: as §2
as §1, with “method. […] The results of the repeated experiments were averaged to generate AUC values for each cell line for each compound.” for “method.”

MKN28 = MKN28 cells; 72 hours
Protocol: as §2
as §1, with “method. […] The results of the repeated experiments were averaged to generate AUC values for each cell line for each compound.” for “method.”

SNU16 = SNU16 cells; 72 hours
Protocol: as §2
as §1, with “method. […] The results of the repeated experiments were averaged to generate AUC values for each cell line for each compound.” for “method.”

MKN1 = MKN1 cells; 72 hours
Protocol: as §2
as §1, with “method. […] The results of the repeated experiments were averaged to generate AUC values for each cell line for each compound.” for “method.”

SNU638 = SNU638 cells; 72 hours
Protocol: as §2
as §1, with “method. […] The results of the repeated experiments were averaged to generate AUC values for each cell line for each compound.” for “method.”

Hs746T = Hs746T cells (SEM subtype); 72 hours
Protocol: as §2
as §1, with “method. […] The results of the repeated experiments were averaged to generate AUC values for each cell line for each compound.” for “method.”

NCC59 = NCC59 cells; 72 hours
Protocol: as §2
as §1, with “method. […] The results of the repeated experiments were averaged to generate AUC values for each cell line for each compound.” for “method.”

NCI_N87 = NCI_N87 cells; 72 hours
Protocol: as §2
as §1, with “method. […] The results of the repeated experiments were averaged to generate AUC values for each cell line for each compound.” for “method.”

YCC3 = YCC3 cells; 72 hours
Protocol: as §2
as §1, with “method. […] The results of the repeated experiments were averaged to generate AUC values for each cell line for each compound.” for “method.”

SNU1967 = SNU1967 cells; 72 hours
Protocol: as §2
as §1, with “method. […] The results of the repeated experiments were averaged to generate AUC values for each cell line for each compound.” for “method.”

YCC2 = YCC2 cells; 72 hours
Protocol: as §2
as §1, with “method. […] The results of the repeated experiments were averaged to generate AUC values for each cell line for each compound.” for “method.”

KATO3 = KATO3 cells; 72 hours
Protocol: as §2
as §1, with “method. […] The results of the repeated experiments were averaged to generate AUC values for each cell line for each compound.” for “method.”

SNU719 = SNU719 cells; 72 hours
Protocol: as §2
as §1, with “method. […] The results of the repeated experiments were averaged to generate AUC values for each cell line for each compound.” for “method.”

SNU216 = SNU216 cells (non-SEM subtype); 72 hours
Protocol: as §2
as §1, with “method. […] The results of the repeated experiments were averaged to generate AUC values for each cell line for each compound.” for “method.”

YCC11 = YCC11 cells (SEM subtype); 72 hours
Protocol: as §2
as §1, with “method. […] The results of the repeated experiments were averaged to generate AUC values for each cell line for each compound.” for “method.”

SNU668 = SNU668 cells (SEM subtype); 72 hours
Protocol: as §2
as §1, with “method. […] The results of the repeated experiments were averaged to generate AUC values for each cell line for each compound.” for “method.”

SNU484 = SNU484 cells (SEM subtype); 72 hours
Protocol: as §2
as §1, with “method. […] The results of the repeated experiments were averaged to generate AUC values for each cell line for each compound.” for “method.”

SNU1 = SNU1 cells; 72 hours
Protocol: as §2
as §1, with “method. […] The results of the repeated experiments were averaged to generate AUC values for each cell line for each compound.” for “method.”

SNU1750 = SNU1750 cells (SEM subtype); 72 hours
Protocol: as §2
as §1, with “method. […] The results of the repeated experiments were averaged to generate AUC values for each cell line for each compound.” for “method.”

NCC19 = NCC19 cells; 72 hours
Protocol: as §2
as §1, with “method. […] The results of the repeated experiments were averaged to generate AUC values for each cell line for each compound.” for “method.”

NCC20 = NCC20 cells; 72 hours
Protocol: as §2
as §1, with “method. […] The results of the repeated experiments were averaged to generate AUC values for each cell line for each compound.” for “method.”

CC[C@]1(O)C[C@H]2CN(CCc3c([nH]c4ccccc34)[C@@](C(=O)OC)(c3cc4c(cc3OC)N(C=O)[C@H]3[C@@](O)(C(=O)OC)[C@H](OC(C)=O)[C@]5(CC)C=CCN6CC[C@]43[C@@H]65)C2)C1 [Vincristine] was tested, and the “Average Area Under the Viability Curve (AUC), AUC norm value” (“Average Area Under the Viability Curve” for short) (FU97) was −1.115, the “Average Area Under the Viability Curve” value (SNU601) was 0.9381 and the “Average Area Under the Viability Curve” value (AGS) was −1.75. For the same compound, the “Average Area Under the Viability Curve” value (SK4) was −1.283, the “Average Area Under the Viability Curve” value (NCC24) was −3.156 and the “Average Area Under the Viability Curve” value (MKN45) was 2.226. For the same compound, the “Average Area Under the Viability Curve” value (OCUM1) was 0.6548, the “Average Area Under the Viability Curve” value (MKN74) was 0.209 and the “Average Area Under the Viability Curve” value (SNU620) was −0.3792. For the same compound, the “Average Area Under the Viability Curve” value (MKN28) was −0.493, the “Average Area Under the Viability Curve” value (SNU16) was −1.522 and the “Average Area Under the Viability Curve” value (MKN1) was −1.53. For the same compound, the “Average Area Under the Viability Curve” value (SNU638) was 0.1348, the “Average Area Under the Viability Curve” value (Hs746T) was 1.044 and the “Average Area Under the Viability Curve” value (NCC59) was 3.847. The “Average Area Under the Viability Curve” value (NCI_N87) was 1.615, the “Average Area Under the Viability Curve” value (YCC3) was 4.6576 and the “Average Area Under the Viability Curve” value (SNU1967) was −1.3653. The “Average Area Under the Viability Curve” value (YCC2) was 2.298, the “Average Area Under the Viability Curve” value (KATO3) was 4.8981 and the “Average Area Under the Viability Curve” value (SNU719) was 5.036. The “Average Area Under the Viability Curve” value (SNU216) was 1.755, the “Average Area Under the Viability Curve” value (YCC11) was −1.42 and the “Average Area Under the Viability Curve” value (SNU668) was −1.315. The “Average Area Under the Viability Curve” value (SNU484) was −1.965, the “Average Area Under the Viability Curve” value (SNU1) was −0.5253 and the “Average Area Under the Viability Curve” value (SNU1750) was 0. The “Average Area Under the Viability Curve” value (NCC19) was 5.039 and the “Average Area Under the Viability Curve” value (NCC20) was −1.434.
